Assay results from patent US20030215462A1, “Use of UGT inhibitors to increase bioavailability” (priority 2001, published 2003).
Values joined by “and” are separate entries in the source; they are usually repeats but may differ in a detail not shown here. Identical values can stand only once. Each block holds one compound with its values, some of them ahead of it.

Tests used:
Assay type in all cases: biochemical
[1] = test system: T1, UGT enzymes of human liver microsomes; experiment: Inhibition of 7-HFC glucuronidation in human liver microsomes; settings: 7-HFC 50 μM, human liver microsomes 100 μg/ml, 15 min
T1 construct: percentage of control metabolism, 7-HFC glucuronidation; percentage of control metabolism, 7-HFC glucuronidation

[2] = test system: UGT enzymes of human liver microsomes; experiment: Inhibition of raloxifene glucuronidation (G1, G2) in human liver microsomes; settings: raloxifene 50 μM, human liver microsomes 250 μg/ml, 15 min
Source text: Compounds were eluted using a binary solvent gradient system. […] Solvent B was methanol. […] Detection was at 280 nm.

[3] = biological target: T2, UGT enzymes of human liver microsomes (Homo sapiens, UniProt P16662); experiment: Inhibition of zidovudine glucuronidation in human liver microsomes; settings: liver lot 062101
T2 construct: residual metabolism (percentage of control), zidovudine glucuronidation; other: liver lot 062101; residual metabolism (percentage of control), zidovudine glucuronidation; residual metabolism (percentage of control)
T2 sequence (P16662 1-529): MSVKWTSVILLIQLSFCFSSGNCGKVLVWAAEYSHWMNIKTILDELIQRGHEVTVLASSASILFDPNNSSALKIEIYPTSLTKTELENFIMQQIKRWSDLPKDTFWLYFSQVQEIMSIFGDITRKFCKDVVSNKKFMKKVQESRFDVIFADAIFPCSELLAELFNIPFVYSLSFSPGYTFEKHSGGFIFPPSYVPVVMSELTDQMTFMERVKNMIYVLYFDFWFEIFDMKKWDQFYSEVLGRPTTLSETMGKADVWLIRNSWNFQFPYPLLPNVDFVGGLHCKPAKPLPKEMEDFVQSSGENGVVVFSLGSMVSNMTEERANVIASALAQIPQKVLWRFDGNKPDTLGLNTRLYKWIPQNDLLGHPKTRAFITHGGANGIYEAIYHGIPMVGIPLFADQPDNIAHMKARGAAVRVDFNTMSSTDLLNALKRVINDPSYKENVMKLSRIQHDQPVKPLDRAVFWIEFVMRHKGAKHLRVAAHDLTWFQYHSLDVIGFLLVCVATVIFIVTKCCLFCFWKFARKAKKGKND
Method: Compounds were eluted using a binary solvent gradient system where solvent A was dilute phosphoric acid (pH 3) and solvent B was acetonitrile.
Standardized incubations utilized 500 μM zidovudine substrate, 1 mg/ml microsomal protein, 5 mM UDPGA and a 30 min incubation time. […] Int.

[4] = test system: T3, UGT enzymes of human liver microsomes; experiment: Inhibition of labetalol glucuronidation (LG1, LG2) in human liver microsomes; settings: labetalol 50 μM; inhibitor 100 μM
T3 construct: residual metabolism (percentage of control), labetalol LG1; other: labetalol 50 μM; residual metabolism (percentage of control), labetalol LG1; residual metabolism (percentage of control), labetalol LG2; inhi
Method: Supernatants were analyzed by HPLC with fluorescence detection.
Compounds were eluted using a binary solvent gradient system where solvent A was 5:5:90 tetrahydrofuran-acetonitrile-(NH4)2HPO4 50 mM, while solvent B was 25:25:50 tetrahydrofuran-acetonitrile-(NH4)2HPO4 50 mM. Solvent flow rate was 0.75 ml/min and the column temperature was ambient. […] Labetalol and metabolites were measured by fluorescence detection using a Jasco model FP920 detector. Excitation and emission wavelengths were 370 nm 418 nm respectively. Retention times for salicylamide internal standard and labetalol were 6.6 min and 15.0 min respectively.

[5] = test system: T4, UGT enzymes of human liver microsomes; experiment: Inhibition of 2ME2 glucuronidation (MG1, MG2) in human liver microsomes; settings: liver 062101, 2ME2 50 μM
T4 construct: other: liver 062101
Source text: (§1) Compounds were eluted using a binary solvent gradient system where solvent A was dilute phosphoric acid (pH 3) and solvent B was 80:20 acetonitrile-methanol. […] Detection was at 280 nm.

[6] = test system: UGT enzymes of pooled human jejunum microsomes; experiment: Inhibition of 2ME2 glucuronidation (MG1) in pooled human jejunum microsomes; settings: jejunum HJ61, 2ME2 50 μM
Source text: as §1

Structure (SMILES): Oc1cc(O)c2c(c1)O[C@H](c1cc(O)c(O)c(O)c1)[C@H](O)C2 [Epigallocatechin]
% of control metabolism (SD, n = 3), 7-HFC glucuronidation ([1]; inhibitor 100 μM): 77 (1) % | % of control metabolism (SD, n = 3), 7-HFC glucuronidation ([1]; inhibitor 200 μM): 90 (1) % | % of control metabolism (SD, n = 3), 7-HFC glucuronidation ([1]; inhibitor 500 μM): 81 (4) % | % of control metabolism (SD, n = 3), raloxifene glucuronide G1 ([2]; inhibitor 500 μM): 65 (4) % | % of control metabolism (SD, n = 3), raloxifene glucuronide G2 ([2]; inhibitor 500 μM): 79 (4) % | residual metabolism (percentage of control), zidovudine glucuronidation ([3]; inhibitor 500 μM): 90 (3) % | residual metabolism (percentage of control), labetalol LG1 [4]: 96 (7) % | residual metabolism (percentage of control), labetalol LG2 [4]: 87 (5) %

% of control metabolism (SD, n = 3), 7-HFC glucuronidation ([1]; inhibitor 500 μM): 63 (1) % | % of control metabolism (SD, n = 3), raloxifene glucuronide G1 ([2]; inhibitor 50 μM): 54 (4) % | % of control metabolism (SD, n = 3), raloxifene glucuronide G1 ([2]; inhibitor 100 μM): 34 (2) % | % of control metabolism (SD, n = 3), raloxifene glucuronide G2 ([2]; inhibitor 50 μM): 71 (9) % | % of control metabolism (SD, n = 3), raloxifene glucuronide G2 ([2]; inhibitor 100 μM): 40 (2) % | residual metabolism (percentage of control), zidovudine glucuronidation ([3]; inhibitor 200 μM): 64 (3) % | residual metabolism (percentage of control), zidovudine glucuronidation ([3]; inhibitor 500 μM): 48 (7) % and 34 (4) % | residual metabolism (percentage of control), zidovudine glucuronidation ([3]; inhibitor 1000 μM): 15 (3) % | residual metabolism (% of control), 2ME2 MG1 ([5]; inhibitor 25 μM): 76 (1) % | residual metabolism (% of control), 2ME2 MG2 ([5]; inhibitor 25 μM): 53 (4) % | residual metabolism (% of control), 2ME2 MG1 ([5]; inhibitor 50 μM): 47 (3) % | residual metabolism (% of control), 2ME2 MG2 ([5]; inhibitor 50 μM): 26 (5) % | residual metabolism (% of control), 2ME2 MG1 ([5]; inhibitor 100 μM): 21 (4) % | residual metabolism (% of control), 2ME2 MG2 ([5]; inhibitor 100 μM): 19 (0) % | residual metabolism (% of control), 2ME2 MG1 ([6]; inhibitor 50 μM): 78 (2) % | residual metabolism (% of control), 2ME2 MG1 ([6]; inhibitor 100 μM): 79 (5) %
Structure (SMILES): O=C1C[C@@H](c2ccc(O)cc2)Oc2cc(O)cc(O)c21 [Naringenin]
